Molecular target: T1, recombinant human 5-HT5A receptor (Homo sapiens, UniProt P47898)
T1 construct: expressed in transfected cells; host or cells: Human Embryonic Kidney-EBNA (HEK-EBNA) cells, transient cDNA expression; membranes
Experiment: [3H]LSD radioligand binding assay
Conditions: [3H]LSD approx. 1 nM; membranes from HEK-EBNA cells transiently expressing 5-HT5A; Ki from IC50 by Cheng-Prussoff
Procedure: A [^3H]LSD radioligand binding assay was used to determine the affinity of the compounds for the recombinant human 5-HT5A receptor, in membranes from transiently (cDNA) expressed 5-HT5A receptors in Human Embryonic Kidney-EBNA (HEK-EBNA) cells. Assay buffer consisted of Tris (50 mM) buffer containing 1 mM EGTA, 10 mM MgCl2 (pH 7.4) and 10 μM pargyline. The binding assay was carried out in 96-well-plates in the presence of [^3H]LSD (approximately 1 nM), approximately 2 μg/well of membrane protein, and 0.5 mg of Ysi-poly-l-lysine SPA beads in a final volume of 200 μl of buffer. Non-specific binding was defined using methiothepin 2 μM. Compounds were tested at 10 concentrations. All assays were conducted in duplicate and repeated at least two times. Assay plates were incubated for 120 min at room temperature before centrifugation. Bound ligand was determined using a Packard Topcount scintillation counter. IC50 values were calculated using a non-linear curve fitting program and Ki values calculated using the Cheng-Prussoff equation.

T1 sequence (P47898 whole entry): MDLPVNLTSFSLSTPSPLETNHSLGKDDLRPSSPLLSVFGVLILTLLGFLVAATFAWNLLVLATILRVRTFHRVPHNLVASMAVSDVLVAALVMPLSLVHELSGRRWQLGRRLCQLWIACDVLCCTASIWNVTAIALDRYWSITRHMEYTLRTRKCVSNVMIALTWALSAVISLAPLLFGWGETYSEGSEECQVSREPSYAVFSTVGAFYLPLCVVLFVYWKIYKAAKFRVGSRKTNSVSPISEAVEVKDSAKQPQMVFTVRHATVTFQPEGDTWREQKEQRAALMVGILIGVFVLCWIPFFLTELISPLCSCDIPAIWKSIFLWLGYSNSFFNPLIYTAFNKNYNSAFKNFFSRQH

| SMILES | Ki [nM] |
| --- | --- |
| COc1ccccc1CNc1ccc2c(NCc3ccc4nc[nH]c4c3)cccc2n1 [Example 114, N5-(3H-Benzoimidazol-5-ylmethyl)-N2-(2-methoxy-benzyl)-quinoline-2,5-diamine] | 3.33 |
| FC(F)(F)Oc1ccccc1CNc1ccc2c(NCc3ccc4[nH]cnc4c3)cccc2n1 [Example 117, N5-(1H-Benzoimidazol-5-ylmethyl)-N2-(2-trifluoromethoxy-benzyl)-quinoline-2,5-diamine] | 32.4 |
| Cc1cc2cccc(Nc3ccc4c(NCc5[nH]cnc5C)cccc4n3)c2o1 [Example 125, N2-(2-Methyl-benzofuran-7-yl)-N5-(5-methyl-3H-imidazol-4-ylmethyl)-quinoline-2,5-diamine] | 2.33 |
| Cc1ccc(CNc2ccc3c(NS(=O)(=O)c4ccc(F)c(F)c4)cccc3n2)o1 [Example 74, 3,4-Difluoro-N-{2-[(5-methyl-furan-2-ylmethyl)-amino]-quinolin-5-yl}-benzenesulfonamide] | 12.9 |
| CC(Nc1cccc2nc(Nc3cccc4c3OC(C)(C)C4)ccc12)c1cc(F)cc(F)c1 (racemic) [Example 151, rac-N5-[1-(3,5-Difluoro-phenyl)-ethyl]-N2-(2,2-dimethyl-2,3-dihydro-benzofuran-7-yl)-quinoline-2,5-diamine] | 4.74 |
| O=S(=O)(Nc1cccc2nc(Nc3cccc(C4CC4)c3)ccc12)c1cc(F)cc(F)c1 [Example 159, N-[2-(3-Cyclopropyl-phenylamino)-quinolin-5-yl]-3,5-difluoro-benzenesulfonamide] | 28.3 |
| Cc1ccc(CNc2ccc3c(NS(=O)(=O)c4ccc(Cl)s4)cccc3n2)o1 [Example 58, 5-Chloro-thiophene-2-sulfonic acid {2-[(5-methyl-furan-2-ylmethyl)-amino]-quinolin-5-yl}-amide] | 7.61 |
| Cc1ccc(CNc2ccc3c(CNc4cccnc4)cccc3n2)o1 [Example 21, (5-Methyl-furan-2-ylmethyl)-[5-(pyridin-3-ylaminomethyl)-quinolin-2-yl]-amine] | 35.8 |
| CC1(C)Cc2cccc(Nc3ccc4c(NC5CCS(=O)(=O)c6ccccc65)cccc4n3)c2O1 (racemic) [Example 144, rac-N2-(2,2-Dimethyl-2,3-dihydro-benzofuran-7-yl)-N5-(1,1-dioxo-1l6-thiochroman-4-yl)-quinoline-2,5-diamine] | 15.4 |
| Cc1ccc(CNc2ccc3c(Nc4ccc(Cl)cc4)cccc3n2)o1 [Example 51, N5-(4-Chloro-phenyl)-N2-(5-methyl-furan-2-ylmethyl)-quinoline-2,5-diamine] | 9.09 |
| COc1ncccc1CNc1cccc2nc(NCc3ccc(C)o3)ccc12 [Example 27, N5-(2-Methoxy-pyridin-3-ylmethyl)-N2-(5-methyl-furan-2-ylmethyl)-quinoline-2,5-diamine] | 43 |
| COc1cccc(OC)c1CNc1ccc2c(NCc3cccc4[nH]ccc34)cccc2n1 [Example 109, N2-(2,6-Dimethoxy-benzyl)-N5-(1H-indol-4-ylmethyl)-quinoline-2,5-diamine] | 97.3 |
| COc1ccccc1CNc1ccc2c(NS(=O)(=O)c3ccc(F)cc3)cccc2n1 [Example 61, 4-Fluoro-N-[2-(2-methoxy-benzylamino)-quinolin-5-yl]-benzenesulfonamide] | 19.2 |
| Cc1ccc(CNc2ccc3c(NS(=O)(=O)c4ccc(F)cc4)cccc3n2)o1 [Example 42, N-{2-[(5-Methyl-furan-2-ylmethyl)-amino]-quinolin-5-yl}-4-fluorobenzenesulfonamide] | 12.5 |
| Cc1ccc(CNc2ccc3c(NCc4cc(F)cc(F)c4)cccc3n2)o1 [Example 120, N5-(3,5-Difluoro-benzyl)-N2-(5-methyl-furan-2-ylmethyl)-quinoline-2,5-diamine] | 8.45 |
| Cc1ccc(CNc2ccc3c(CCc4cccc(S(N)(=O)=O)c4)cccc3n2)o1 [Example 34, 3-(2-{2-[(5-Methyl-furan-2-ylmethyl)-amino]-quinolin-5-yl}-ethyl)-benzenesulfonamide] | 12.4 |
| COc1ccccc1CNc1ccc2c(NCc3cccnc3)cccc2n1 [Example 1, N2-(2-Methoxy-benzyl)-N5-pyridin-3-ylmethyl-quinoline-2,5-diamine] | 8.65 |
| CC1(C)Cc2cccc(Nc3ccc4c(NS(=O)(=O)c5cc(F)cc(F)c5)cccc4n3)c2O1 [Example 141, N-[2-(2,2-Dimethyl-2,3-dihydro-benzofuran-7-ylamino)-quinolin-5-yl]-3,5-difluoro-benzenesulfonamide] | 22 |
| Cc1cc2cccc(Nc3ccc4c(NCc5cnc[nH]5)cccc4n3)c2o1 [Example 131, N5-(3H-Imidazol-4-ylmethyl)-N2-(2-methyl-benzofuran-7-yl)-quinoline-2,5-diamine] | 17.4 |
| COc1ccccc1CNc1ccc2c(CCc3cccc(CO)c3)cccc2n1 [Example 23, (3-{2-[2-(2-Methoxy-benzylamino)-quinolin-5-yl]-ethyl}-phenyl)-methanol] | 18.4 |

| SMILES | Ki [nM] |
| --- | --- |
| Cc1ccc(CNc2ccc3c(NS(=O)(=O)c4ccccc4)cccc3n2)o1 [Example 39, N-{2-[(5-Methyl-furan-2-ylmethyl)-amino]-quinolin-5-yl}-benzenesulfonamide] | 28.7 |
| Cc1ccc(CNc2ccc3c(NCc4cccc5[nH]ccc45)cccc3n2)o1 [Example 91, N5-(1H-Indol-4-ylmethyl)-N2-(5-methyl-furan-2-ylmethyl)-quinoline-2,5-diamine] | 5.25 |
| Cc1ccc(CNc2ccc3c(NC4CCSc5ccccc54)cccc3n2)o1 (racemic) [Example 135, rac-N2-(5-Methyl-furan-2-ylmethyl)-N5-thiochroman-4-yl-quinoline-2,5-diamine] | 17.1 |
| c1cc(Nc2ccc3c(NCc4cccc5[nH]ccc45)cccc3n2)cc(C2CC2)c1 [Example 164, N2-(3-Cyclopropyl-phenyl)-N5-(1H-indol-4-ylmethyl)-quinoline-2,5-diamine] | 16.6 |
| Cc1ccc(CNc2ccc3c(NCc4nc[nH]c4C)cccc3n2)o1 [Example 92, N2-(5-Methyl-furan-2-ylmethyl)-N5-(5-methyl-1H-imidazol-4-ylmethyl)-quinoline-2,5-diamine] | 14.4 |
| O=S(=O)(Nc1cccc2nc(NCCOc3ccccc3)ccc12)c1cc(F)cc(F)c1 [Example 77, 3,5-Difluoro-N-[2-(2-phenoxy-ethylamino)-quinolin-5-yl]-benzenesulfonamide] | 19.1 |
| Cc1ccc(CNc2ccc3c(SCc4ccccc4)cccc3n2)o1 [Example 46, (5-Benzylsulfanyl-quinolin-2-yl)-(5-methyl-furan-2-ylmethyl)-amine] | 34.1 |
| COc1ccccc1CNc1ccc2c(NCc3nccs3)cccc2n1 [Example 110, N2-(2-Methoxy-benzyl)-N5-thiazol-2-ylmethyl-quinoline-2,5-diamine] | 16.8 |
| CC1(C)Cc2cccc(Nc3ccc4c(NS(=O)(=O)Nc5ccc(F)cc5)cccc4n3)c2O1 [Example 156, N-{2-[(2,2-dimethyl-2,3-dihydro-1-benzofuran-7-yl)amino]quinolin-5-yl}-N′-(4-fluorophenyl)sulfamide] | 45.1 |
| COc1ccccc1CNc1cccc2nc(NCc3ccc(C)o3)ccc12 [Example 13, N5-(2-Methoxy-benzyl)-N2-(5-methyl-furan-2-ylmethyl)-quinoline-2,5-diamine] | 15.3 |
| Cc1ccc(CNc2ccc3c(NC4CCOc5ccccc54)cccc3n2)o1 (racemic) [Example 142, rac-N5-Chroman-4-yl-N2-(5-methyl-furan-2-ylmethyl)-quinoline-2,5-diamine] | 37.1 |
| COc1ccccc1CNc1ccc2c(NCc3cnc(C)[nH]3)cccc2n1 [Example 97, N2-(2-Methoxy-benzyl)-N5-(2-methyl-3H-imidazol-4-ylmethyl)-quinoline-2,5-diamine] | 31 |
| CC1(C)Cc2cccc(Nc3ccc4c(NCc5cccnc5)cccc4n3)c2O1 [Example 163, N2-(2,2-Dimethyl-2,3-dihydro-benzofuran-7-yl)-N5-pyridin-3-ylmethyl-quinoline-2,5-diamine] | 9.92 |
| COc1ccccc1CNc1ccc2c(CCc3ccccc3)cccc2n1 [Example 4, (2-Methoxy-benzyl)-(5-phenethyl-quinolin-2-yl)-amine] | 9.51 |
| Cc1ccc(CNc2ccc3c(NS(=O)(=O)c4cc(F)cc(F)c4)cccc3n2)s1 [Example 85, 3,5-Difluoro-N-{2-[(5-methyl-thiophen-2-ylmethyl)-amino]-quinolin-5-yl}-benzenesulfonamide] | 16.7 |
| Cc1ccc(CNc2ccc3c(N[C@H]4CCS(=O)(=O)c5ccccc54)cccc3n2)o1 [Example 152, (R)— and (S)—N5-((S)-1,1-Dioxo-1l6-thiochroman-4-yl)-N2-(5-methyl-furan-2-ylmethyl)-quinoline-2,5-diamine] | 14.7 |
| Cc1ccc(CNc2ccc3c(Nc4ccc(F)c5[nH]ccc45)cccc3n2)o1 [Example 119, N5-(7-Fluoro-1H-indol-4-yl)-N2-(5-methyl-furan-2-ylmethyl)-quinoline-2,5-diamine] | 8.45 |
| Cc1ccc(CNc2ccc3c(NCc4ccc(F)cc4)cccc3n2)o1 [Example 20, N5-(4-Fluoro-benzyl)-N2-(5-methyl-furan-2-ylmethyl)-quinoline-2,5-diamine] | 25.4 |
| COc1ccccc1CNc1ccc2c(NCc3c[nH]nn3)cccc2n1 [Example 106, N2-(2-Methoxy-benzyl)-N5-(1H-[1,2,3]triazol-4-ylmethyl)-quinoline-2,5-diamine] | 30.4 |
